Experimental data published in publication PMC3637054, “Comparison of activity indexes for recognizing enzyme mutants of higher activity with uricase as model” (Chemistry Central Journal, 2013).

System: T1, uricase of Asahi-Kasei
T1 construct: gene urate oxidase; commercial diagnostic enzyme of Asahi-Kasei
Experiment: UV absorbance at […] nm, initial rates, Lineweaver-Burk
Format: biochemical
Details: borate buffer, 25 °C

Compound `O=c1[nH]c(=O)c2[nH]c(=O)[nH]c2[nH]1` [uric acid] has a Km of roughly 30 µM.
